Measured values from PubChem BioAssay (NCI).
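Grown in 96-well plates, cells were treated for 48 hours with each compound at five concentrations. Insufficient inhibition: endpoint recorded as highest concentration tested. TGI: concentration producing complete growth inhibition.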

Legend:
Assay in all cases: NCI-60 cell line screen, 48 h
[1] = test system: RPMI-8226 leukemia
[2] = test system: SK-MEL-5 melanoma
[3] = test system: T-47D breast
[4] = test system: HCT-15 colon
[5] = test system: LOX IMVI melanoma
[6] = test system: ACHN renal
[7] = test system: BT-549 breast
[8] = test system: MOLT-4 leukemia
[9] = test system: SK-MEL-28 melanoma
[10] = test system: K-562 leukemia
[11] = test system: MCF7 breast
[12] = test system: HL-60(TB) leukemia
[13] = test system: SR leukemia
[14] = test system: 786-0 renal
[15] = test system: SF-539 CNS
[16] = test system: COLO 205 colon
[17] = test system: OVCAR-8 ovarian
[18] = test system: UACC-62 melanoma
[19] = test system: NCI-H522 lung
[20] = test system: CAKI-1 renal
[21] = test system: NCI/ADR-RES ovarian
[22] = test system: MALME-3M melanoma
[23] = test system: MDA-MB-231 breast
[24] = test system: HCC-2998 colon
[25] = test system: UACC-257 melanoma
[26] = test system: OVCAR-4 ovarian
[27] = test system: NCI-H23 lung
[28] = test system: HOP-92 NSCLC
[29] = test system: OVCAR-5 ovarian
[30] = test system: SNB-19 CNS
[31] = test system: MDA-MB-435
[32] = test system: M14 melanoma
[33] = test system: NCI-H226 lung
[34] = test system: SW-620 colon
[35] = test system: TK-10 renal
[36] = test system: PC-3 prostate
[37] = test system: KM12 colon
[38] = test system: SK-OV-3 ovarian
[39] = test system: SNB-75 CNS
[40] = test system: SN12C renal
[41] = test system: OVCAR-3 ovarian
[42] = test system: HS 578T breast
[43] = test system: MDA-N
[44] = test system: SF-295 CNS
[45] = test system: A549 NSCLC
[46] = test system: SF-268 CNS
[47] = test system: UO-31 renal
[48] = test system: DU-145 prostate
[49] = test system: NCI-H460 lung
[50] = test system: U251 CNS
[51] = test system: RXF 393 renal
[52] = test system: HT29 colon
[53] = test system: HCT-116 colon
[54] = test system: SK-MEL-2 melanoma
[55] = test system: EKVX NSCLC
[56] = test system: HOP-62 NSCLC
[57] = test system: IGROV1 ovarian
[58] = test system: CCRF-CEM leukemia
[59] = test system: A498 renal

In the case of `O=C(O)c1ccccc1CC1Cc2ccccc2C1`, the TGI [1] is reported as > 100 µM, the TGI [2] is reported as > 100 µM and the TGI [3] is reported as > 100 µM. The TGI [4] was > 100 µM, the TGI [5] was > 100 µM and the TGI [6] was > 100 µM. For the same compound, the TGI [7] was > 100 µM, the TGI [8] was > 100 µM and the TGI [9] was > 100 µM. The TGI [10] was > 100 µM, the TGI [11] was > 100 µM and the TGI [12] was > 100 µM. The TGI [13] was > 100 µM, the TGI [14] was > 100 µM and the TGI [15] was > 100 µM. The TGI [16] was > 100 µM, the TGI [17] was > 100 µM and the TGI [18] was > 100 µM. For the same compound, the TGI [19] was > 100 µM, the TGI [20] was > 100 µM and the TGI [21] was > 100 µM. The TGI [22] was > 100 µM, the TGI [23] was > 100 µM and the TGI [24] was > 100 µM. The TGI [25] was > 100 µM, the TGI [26] was > 100 µM and the TGI [27] was > 100 µM. For the same compound, the TGI [28] was > 100 µM, the TGI [29] was > 100 µM and the TGI [30] was > 100 µM. The TGI [31] was > 100 µM, the TGI [32] was > 100 µM and the TGI [33] was > 100 µM. For the same compound, the TGI [34] was > 100 µM, the TGI [35] was > 100 µM and the TGI [36] was > 100 µM. For the same compound, the TGI [37] was > 100 µM, the TGI [38] was > 100 µM and the TGI [39] was > 100 µM. For the same compound, the TGI [40] was > 100 µM, the TGI [41] was > 100 µM and the TGI [42] was > 100 µM. The TGI [43] was > 100 µM, the TGI [44] was > 100 µM and the TGI [45] was > 100 µM. The TGI [46] was > 100 µM, the TGI [47] was > 100 µM and the TGI [48] was > 100 µM. For the same compound, the TGI [49] was > 100 µM, the TGI [50] was > 100 µM and the TGI [51] was > 100 µM. The TGI [52] was > 100 µM, the TGI [53] was > 100 µM and the TGI [54] was > 100 µM. The TGI [55] was > 100 µM, the TGI [56] was > 100 µM and the TGI [57] was > 100 µM. For the same compound, the TGI [58] was > 100 µM.

With `Cc1ccc(/C=C2\N=C(N3CCOCC3)NC2=O)cc1` the TGI [1] was > 100 µM, the TGI [3] was > 100 µM and the TGI [4] was > 100 µM. For the same compound, the TGI [5] was > 100 µM, the TGI [6] was > 100 µM and the TGI [7] was > 100 µM. The TGI [8] was > 100 µM, the TGI [9] was > 100 µM and the TGI [11] was > 100 µM. The TGI [12] was > 100 µM, the TGI [13] was > 100 µM and the TGI [14] was > 100 µM. For the same compound, the TGI [15] was > 100 µM, the TGI [16] was > 100 µM and the TGI [17] was > 100 µM. The TGI [18] was > 100 µM, the TGI [19] was > 100 µM and the TGI [20] was > 100 µM. For the same compound, the TGI [21] was > 100 µM, the TGI [22] was > 100 µM and the TGI [23] was > 100 µM. The TGI [24] was > 100 µM, the TGI [25] was > 100 µM and the TGI [26] was > 100 µM. For the same compound, the TGI [27] was > 100 µM, the TGI [28] was > 100 µM and the TGI [29] was > 100 µM. For the same compound, the TGI [30] was > 100 µM, the TGI [31] was > 100 µM and the TGI [32] was > 100 µM. The TGI [33] was > 100 µM, the TGI [34] was > 100 µM and the TGI [35] was > 100 µM. The TGI [36] was > 100 µM, the TGI [37] was > 100 µM and the TGI [38] was > 100 µM. The TGI [39] was > 100 µM, the TGI [40] was > 100 µM and the TGI [41] was > 100 µM. For the same compound, the TGI [42] was > 100 µM, the TGI [43] was > 100 µM and the TGI [44] was > 100 µM. For the same compound, the TGI [45] was > 100 µM, the TGI [46] was > 100 µM and the TGI [47] was > 100 µM. The TGI [48] was > 100 µM, the TGI [50] was > 100 µM and the TGI [51] was > 100 µM. The TGI [52] was > 100 µM, the TGI [53] was > 100 µM and the TGI [54] was > 100 µM. For the same compound, the TGI [55] was > 100 µM, the TGI [56] was > 100 µM and the TGI [57] was > 100 µM. For the same compound, the TGI [58] was > 100 µM.

`CN(C)c1ccc(/C=C/c2ccc3ccccc3[n+]2C)cc1` was tested, and the TGI [2] was 13.5 µM, the TGI [3] was 6.26 µM and the TGI [4] was 30.4 µM. For the same compound, the TGI [6] was 55.3 µM, the TGI [7] was 10.5 µM and the TGI [8] was 4.53 µM. For the same compound, the TGI [9] was 12.7 µM, the TGI [10] was > 100 µM and the TGI [11] was 14.4 µM. For the same compound, the TGI [12] was 3.48 µM, the TGI [13] was 4.34 µM and the TGI [14] was > 100 µM. For the same compound, the TGI [17] was 4.3 µM, the TGI [18] was 41 µM and the TGI [21] was > 100 µM. It also gave a TGI [22] of 11.2 µM, a TGI [23] of 12.6 µM and a TGI [24] of 16.3 µM. It also gave a TGI [27] of 9.26 µM, a TGI [28] of 5.19 µM and a TGI [29] of 26.2 µM. For the same compound, the TGI [30] was > 100 µM, the TGI [31] was 13.3 µM and the TGI [32] was 17.1 µM. The TGI [33] was 13.3 µM, the TGI [34] was 12.3 µM and the TGI [35] was 17.7 µM. The TGI [36] was 9.84 µM, the TGI [37] was 13.6 µM and the TGI [38] was 60.6 µM. For the same compound, the TGI [40] was 15.8 µM, the TGI [41] was 15.5 µM and the TGI [42] was > 100 µM. For the same compound, the TGI [43] was 13 µM, the TGI [44] was 10 µM and the TGI [45] was 22.5 µM. For the same compound, the TGI [47] was 9.62 µM, the TGI [59] was 60.1 µM and the TGI [48] was 25.5 µM. For the same compound, the TGI [49] was 12 µM, the TGI [50] was 20.7 µM and the TGI [51] was 9.84 µM. For the same compound, the TGI [52] was 8.46 µM, the TGI [53] was 10.9 µM and the TGI [54] was 4.02 µM. For the same compound, the TGI [55] was 5.85 µM, the TGI [56] was 25.6 µM and the TGI [57] was > 100 µM. The TGI [58] was 24.6 µM.
